“And” between values parts separate entries of the source, which are not always exact repeats. Equal entries are not always repeated. Where two headings read alike, the source gives them in different places.
Legend:
Type in all cases: cell-based
[1] = tested on: Ba/F3 cells of EGFR-T790M/del19; assay: Drug sensitivity screening at 100 nM, Ba/F3 EGFR-T790M/del19; details: for Relative cell viability (% of DMSO control): 100 nM; for viability at 0.1 µM: Mus musculus, BaF3, 72 h, read-out: Relative cell viability (ratio to DMSO control), del19/T790M
Experimental: (§1) After the incubation, cell viability was measured using CellTiter-Glo assay. The relative cell viability was calculated as a ratio of each value to that of the DMSO control.

[2] = tested on: Ba/F3 cells of EGFR-del19; assay: Drug sensitivity screening at 100 nM, Ba/F3 EGFR-del19; details: for Relative cell viability (% of DMSO control) in del19 Ba/F3 cells: 100 nM; for viability at 0.1 µM: Mus musculus, BaF3, 72 h, read-out: Relative cell viability (ratio to DMSO control), del19
Experimental: as §1

[3] = tested on: Ba/F3 cells of EGFR-C797S/T790M/del19; assay: Drug sensitivity screening at 100 nM, Ba/F3 EGFR-C797S/T790M/del19; details: Mus musculus, BaF3, 72 h, 100 nM inhibitor, 72 h, DMSO = 100; mean of three independent experiments (Fig. 1a data)
Experimental: as §1

[4] = 100 nM inhibitor, 72 h, DMSO = 100, mean of three independent experiments (Fig. 1a data)

Structure (SMILES) | Relative cell viability (ratio to DMSO control), del19/T790M [1, 4] | Relative cell viability (% of DMSO control) ([1]; 72 h, DMSO = 100, experiment 1) | Relative cell viability (% of DMSO control) ([1]; 72 h, DMSO = 100, experiment 2) | Relative cell viability (% of DMSO control) ([1]; 72 h, DMSO = 100, experiment 3) | Relative cell viability (ratio to DMSO control), del19 [2, 4] | Relative cell viability (% of DMSO control) in del19 Ba/F3 cells ([2]; 72 h, DMSO = 100, experiment 1) | Relative cell viability (% of DMSO control) in del19 Ba/F3 cells ([2]; 72 h, DMSO = 100, experiment 2) | Relative cell viability (% of DMSO control) in del19 Ba/F3 cells ([2]; 72 h, DMSO = 100, experiment 3) | viability at 0.1 µM [3] | viability at 0.1 µM [1, 4] | viability at 0.1 µM [2, 4] | viability at 0.1 µM [1] | viability at 0.1 µM [2]
C=CCNC1=C2C[C@@H](C)C[C@H](OC)[C@H](O)[C@@H](C)/C=C(\C)[C@H](OC(N)=O)[C@@H](OC)/C=C\C=C(/C)C(=O)NC(=CC1=O)C2=O [17-AAG] | 63.86 | 65.6049 | 64.9663 | 61.0089 | 54.15 and 54.1494 | 47.4299 | 59.7934 | 55.225 |  |  |  |  | 
Nc1ncnc2c1c(-c1cccc(OCc3ccccc3)c1)cn2[C@H]1C[C@@H](CN2CCC2)C1 [AEW541] |  |  |  |  |  | 86.142 | 111.013 | 118.474 | 132% | 102% | 105% |  | 
Cn1cnc2c(F)c(Nc3ccc(Br)cc3Cl)c(C(=O)NOCCO)cc21 [AZD6244] |  | 105.003 | 111.809 | 110.93 |  | 44.8792 | 57.317 | 50.3776 | 134% | 109% | 50.9% |  | 
CCc1cc2c(cc1N1CCC(N3CCOCC3)CC1)C(C)(C)c1[nH]c3cc(C#N)ccc3c1C2=O [Alectinib, alectinib] |  | 98.2015 | 127.038 | 121.189 |  | 98.9355 | 105.786 | 113.209 | 146% | 115% | 106% |  | 
COC(=O)c1ccc2c(c1)NC(=O)/C2=C(\Nc1ccc(N(C)C(=O)CN2CCN(C)CC2)cc1)c1ccccc1 [BIBF1120] |  |  |  |  |  | 91.4241 | 97.5116 | 102.157 | 108% | 91.1% | 97% |  | 
C[C@]12O[C@H](C[C@]1(O)CO)n1c3ccccc3c3c4c(c5c6ccccc6n2c5c31)CNC4=O [CEP701] |  |  |  |  |  |  |  |  |  |  |  | 7.99% | 2.57%
Cc1nc2ccc(-n3ncc(C(=O)c4cc5ccccc5[nH]4)c3N)cc2[nH]1 [CH5183284] | 100.76 and 100.762 | 87.4669 | 110.946 | 103.872 | 111.23 and 111.228 | 100.01 | 123.157 | 110.518 |  |  |  |  | 
COc1cc2nccc(Oc3ccc(NC(=O)NC4CC4)c(Cl)c3)c2cc1C(N)=O [E7080] | 118.49 and 118.491 | 107.332 | 130.309 | 117.831 | 104.13 and 104.131 | 87.8792 | 107.525 | 116.989 |  |  |  |  | 
CO[C@H]1C[C@@H]2CC[C@@H](C)[C@@](O)(O2)C(=O)C(=O)N2CCCC[C@H]2C(=O)O[C@H]([C@H](C)C[C@@H]2CC[C@@H](OCCO)[C@H](OC)C2)CC(=O)[C@H](C)/C=C(\C)[C@@H](O)[C@@H](OC)C(=O)[C@H](C)C[C@H](C)/C=C/C=C/C=C/1C [Everolimus, everolimus] |  | 31.3636 | 39.0956 | 30.3952 |  | 25.026 | 29.0998 | 35.5918 | 28% | 33.6% | 29.9% |  | 
COc1cc2c(Oc3ccc(NC(=O)C4(C(=O)Nc5ccc(F)cc5)CC4)cc3F)ccnc2cc1OCCCN1CCOCC1 [Foretinib, foretinib] |  | 105.61 | 122.653 | 104.986 |  | 89.6065 | 99.5833 | 99.8956 | 135% | 111% | 96.4% |  | 
CS(=O)(=O)N1CCN(Cc2cc3nc(-c4cccc5[nH]ncc45)nc(N4CCOCC4)c3s2)CC1 [GDC0941] |  | 45.3105 | 67.5344 | 51.7458 |  | 34.6965 | 39.6485 | 45.9129 | 66.1% | 54.9% | 40.1% |  | 
Cc1ccc(NC(=O)c2ccc(CN3CCN(C)CC3)cc2)cc1Nc1nccc(-c2cccnc2)n1 [Imatinib, imatinib] |  |  |  |  |  |  |  |  | 129% |  |  |  | 
CS(=O)(=O)CCNCc1ccc(-c2ccc3ncnc(Nc4ccc(OCc5cccc(F)c5)c(Cl)c4)c3c2)o1 [Lapatinib, lapatinib] |  |  |  |  |  |  |  |  |  |  |  | 102% | 128%
C[C@H]1Oc2cc(cnc2N)-c2c(nn(C)c2C#N)CN(C)C(=O)c2ccc(F)cc21 [Lorlatinib, lorlatinib] |  | 93.1744 | 112.187 | 104.505 |  | 99.5381 | 109.489 | 108.837 | 126% | 103% | 106% |  | 
O=C(C(c1ccccc1)c1ccccc1)N1CCN(CC(O)COc2cccc3ncccc23)CC1 (stereo not shown) [MS209] | 109.461 | 106.534 | 123.336 | 98.5141 | 105.44 | 97.9213 | 113.609 | 104.789 |  |  |  |  | 
Cc1[nH]c(/C=C2\C(=O)Nc3ccc(S(=O)(=O)Cc4c(Cl)cccc4Cl)cc32)c(C)c1C(=O)N1CCC[C@@H]1CN1CCCC1 [PHA665752] |  |  |  |  |  | 109.731 | 119.895 | 113.452 | 136% | 110% | 114% |  | 

From PMC5355811 (Nature Communications, 2017)
